Structures are written as SMILES. Where two headings read alike, the source gives them in different places.

Consider six compounds from PMC9974123, “Targeting prolyl-tRNA synthetase via a series of ATP-mimetics to accelerate drug discovery against toxoplasmosis” (PLOS Pathogens, 2023).

The target in test [1] is T1, Toxoplasma gondii prolyl-tRNA synthetase (TgPRS) (Toxoplasma gondii, UniProt S8G8I1).
T1 construct: gene TGME49_219850; length 334–830
Nature of the test: co-crystal structure with L-pro; aminoacylation inhibition (malachite green); thermal shift (ΔTm […] °C with L-Pro). The format is biochemical.

A further test deals with T2, Toxoplasma gondii WT.
T2 construct: RH
Nature of the test: microbe, parasite or virus in culture. Further details: species or system human foreskin fibroblasts (HFF); T. gondii RH NLuc tachyzoite growth in HFF monolayer, Nano-Glo luciferase luminescence. The note with it: Fibroblast, 48 h. How it is done:
Compounds were synthesized (HPLC purity > 95%) according to reported procedures. A confluent Human Foreskin Fibroblast (HFF) monolayer was infected with 2,000 tachyzoites of RH parasites expressing the NLuc luciferase (RH NLuc) for 2 h to allow parasite invasion. Each compound was added to the culture medium, and infected cells were incubated at 37° C for 48 h. To measure luminescence, the medium was replaced by 50 μL of PBS, and the luminescence assay was performed using Nano-Glo Luciferase Assay System according to the manufacturer’s instructions (Promega). After 3 min of incubation, the luminescence was measured using the CLARIOstar (BMG Labtech) plate reader. EC50 was determined using a non-linear regression analysis of normalized data assuming a sigmoidal dose-response. […] Statistical analyses were performed using a one-way ANOVA test with GraphPad software.  Fig 4 Activity of five compounds on PRS edited parasites. A-D) EC50 values for L95, L96, L97, and L36 were determined for wild-type (WT) and the engineered PRS mutant strains (T477A and T592S). Data are mean value ±SD from at least 2 independent biological replicates, each with 3 technical replicates. Associated dose-response curves are shown in S2C Fig. Higher EC50 values for the mutants confirm that PRS is the molecular target of all five compounds tested. The P-values were calculated using one-way ANOVA analysis and multiple-comparison post hoc tests. n.s., not significant. Associated dose-response curves are shown in S1 Fig. E) The EC50 (nM) values for the engineered PRS mutant strains (T477A and T592S) are shown in comparison with the TgPRS wild type. F) The catalytic cavity of TgPRS is shown with two inhibitors along with their electron densities–HFG (green) and L95 (red)–bound to the tRNA and L-pro binding sites and the ATP binding site respectively. The ribbon of PRS is in cyan whilst the resistance-conferring mutating residues T477 and T592 to L35 are shown in purple. (n.d.–not detected).

Test [2] addresses T1, Toxoplasma gondii prolyl-tRNA synthetase (TgPRS). Nature of the test: co-crystal structure with L-pro; aminoacylation inhibition (malachite green); thermal shift (ΔTm […] °C with L-Pro). The format is biochemical. This is another data set of the same source.
For test [3] the target is unchanged. Described as above. The format is biochemical. This is another data set of the same source.
Test [4] deals with T3, Homo sapiens prolyl-tRNA synthetase (HsPRS) (Homo sapiens, UniProt P07814).
T3 construct: gene EPRS1; length 1015–1506
T3 sequence (P07814 1015-1506): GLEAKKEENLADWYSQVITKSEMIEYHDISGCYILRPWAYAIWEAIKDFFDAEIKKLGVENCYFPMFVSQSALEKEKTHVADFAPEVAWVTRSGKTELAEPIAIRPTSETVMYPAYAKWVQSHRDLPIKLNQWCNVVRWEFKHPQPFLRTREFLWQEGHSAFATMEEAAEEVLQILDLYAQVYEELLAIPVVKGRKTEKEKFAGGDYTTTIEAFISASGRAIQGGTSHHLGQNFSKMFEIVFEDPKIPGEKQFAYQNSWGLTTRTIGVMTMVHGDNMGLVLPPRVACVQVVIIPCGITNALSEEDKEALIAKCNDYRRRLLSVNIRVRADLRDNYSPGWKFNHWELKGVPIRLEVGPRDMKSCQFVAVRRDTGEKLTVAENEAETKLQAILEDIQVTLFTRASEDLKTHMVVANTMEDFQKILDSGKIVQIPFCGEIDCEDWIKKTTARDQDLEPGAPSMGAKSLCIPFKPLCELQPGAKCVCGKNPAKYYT
Nature of the test: co-crystal structure with L-pro; aminoacylation inhibition; thermal shift (ΔTm […] °C with L-pro). Type of test: binding.

Test [5] concerns the target T3, Homo sapiens prolyl-tRNA synthetase (HsPRS). The test is described as above. The format is binding. This is another data set of the same source.
Test [6] addresses T1, Toxoplasma gondii prolyl-tRNA synthetase (TgPRS). Nature of the test: co-crystal structure with L-pro; aminoacylation inhibition (malachite green); thermal shift (ΔTm […] °C with L-Pro). The format is biochemical. This is another data set of the same source.
For test [7] the target is unchanged. The test is described as above. Type of test: biochemical. The source holds these as a separate data set.
In test [8] the target is T3, Homo sapiens prolyl-tRNA synthetase (HsPRS). Nature of the test: co-crystal structure with L-pro; aminoacylation inhibition; thermal shift (ΔTm […] °C with L-pro). Type of test: binding. The source holds these as a separate data set.

T1 sequence (S8G8I1 entry or part of it): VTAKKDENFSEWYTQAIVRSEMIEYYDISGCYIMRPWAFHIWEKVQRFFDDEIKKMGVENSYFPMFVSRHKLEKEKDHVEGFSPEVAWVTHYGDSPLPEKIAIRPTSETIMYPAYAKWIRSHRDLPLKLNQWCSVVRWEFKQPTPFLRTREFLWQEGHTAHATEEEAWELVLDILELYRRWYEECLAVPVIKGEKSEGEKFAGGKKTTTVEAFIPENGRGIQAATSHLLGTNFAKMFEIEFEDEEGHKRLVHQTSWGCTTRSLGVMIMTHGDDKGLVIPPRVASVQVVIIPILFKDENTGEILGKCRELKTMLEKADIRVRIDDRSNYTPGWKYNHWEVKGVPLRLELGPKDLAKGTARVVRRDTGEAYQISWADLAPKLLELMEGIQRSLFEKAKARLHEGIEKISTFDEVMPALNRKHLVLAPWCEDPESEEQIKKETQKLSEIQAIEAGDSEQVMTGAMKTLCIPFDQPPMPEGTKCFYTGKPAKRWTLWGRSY

As usually defined, the IC50 is the midpoint of a concentration-inhibition curve. What is called EC50 is the midpoint of the concentration-response curve. `Cc1cc(N2CC[C@@](C#N)(C3(C)CC3)C2=O)cc(C(=O)NCc2cc(F)cc(-c3cnn(C)c3)c2)n1` [L35]: the half-maximal inhibitory concentration (IC50) in [1] stood at 0.0092 µM. Moreover, the 50% effective concentration (EC50) in the test with Toxoplasma gondii WT (read-out: EC50 Treated-L35 (nM)) was found to be 31 ± 12 nM.

Regarding `Cc1cc(N2CC[C@](C#N)(C3(C)CC3)C2=O)cc(C(=O)NCc2cc(F)cc(-c3cnn(C)c3)c2)n1` [L36], in [2], the IC50 is 2.41 µM. For the same compound, in the test on Toxoplasma gondii WT (read-out: EC50 Treated-L36 (nM)), the EC50 amounted to 5800 ± 350 nM.

Take `Cc1cc(N2CC[C@@](C#N)(C3CC3)C2=O)cc(NC(=O)Cc2ccccc2)n1` [L95]: the IC50 in test [3] worked out at 0.14 µM. For the same compound, in [4], the “co-crystal structure with L-pro; aminoacylation inhibition; thermal shift (ΔTm 1)” value was “The complex structure of HsPRS with L95, L96, and L97 was determined”. Further, the half-maximal effective concentration (EC50) in the test on Toxoplasma gondii WT (read-out: EC50 Treated-L95 (nM)) was determined as 277 ± 6 nM.

Turning to `COc1cncc(-c2cc(F)cc(CNC(=O)c3cc(N4CC[C@@](C#N)(C5CC5)C4=O)cc(C)n3)c2)c1` [L96], the “co-crystal structure with L-pro; aminoacylation inhibition; thermal shift (ΔTm 2)” value in test [5] is “The complex structure of HsPRS with L95, L96, and L97 was determined”. Besides, the IC50 in test [6] stood at 0.0797 µM. The EC50 with Toxoplasma gondii WT (read-out: EC50 Treated-L96 (nM)) came to 106 ± 36 nM.

For `Cc1cc(N2CCC(CO)(C3CC3)C2=O)cc(C(=O)NCc2cc(F)cc(-c3cnn(C)c3)c2)n1` (centres unmarked) [L97], in test [7], the IC50 was 0.05 µM. In addition, the “co-crystal structure with L-pro; aminoacylation inhibition; thermal shift (ΔTm 1)” value in [8] is “The complex structure of HsPRS with L95, L96, and L97 was determined”. For the same compound, in the test on Toxoplasma gondii WT (read-out: EC50 Treated-L97 (nM)), the EC50 came to 544 ± 130 nM.

Consider `CCc1nc(N)nc(N)c1-c1ccc(Cl)cc1` [PYR, pyrimethamine], for which, in the test with Toxoplasma gondii WT (read-out: EC50 Treated-PYR (nM)), the half-maximal effective concentration (EC50) amounted to 174 ± 60 nM.
